Consider seven compounds from PubChem BioAssay (NCI).

Among the test systems are A498 renal; ACHN renal; HCT-116 colon; HCT-15 colon; HOP-92 NSCLC; HT29 colon; M14 melanoma; MDA-N; OVCAR-4 ovarian; OVCAR-8 ovarian; PC-3 prostate; RXF 393 renal; SK-MEL-28 melanoma; SK-MEL-5 melanoma; SNB-19 CNS; SNB-75 CNS; TK-10 renal; U251 CNS; UACC-257 melanoma; HOP-62 NSCLC.
What all share (test): NCI anticancer screen, dose series, 48 h

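Method: 48-hour compound exposure of cells in 96-well plates, five concentrations, linear interpolation of endpoints. The concentration for full growth arrest is given as TGI.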

For `COc1cc(/C=C/C2=NN(c3cccc(S(=O)(=O)O)c3)C3(C2)C(Cl)C(=O)N3c2nc3ccccc3s2)ccc1O` (stereo not drawn), the TGI with A498 renal is greater than 100 µM; with ACHN renal it was 30.9 µM; in the test on HCT-116 colon it was 39.2 µM; with HCT-15 colon, 37.4 µM; in the test on HOP-92 NSCLC, 29.7 µM; in the test with HT29 colon it was 40.8 µM. For the same compound, the TGI in the test with M14 melanoma was greater than 100 µM; in the test on MDA-N, 60.3 µM; in the test on OVCAR-4 ovarian it was 30.4 µM; with OVCAR-8 ovarian, 40.8 µM; in the test with PC-3 prostate it was greater than 100 µM; with RXF 393 renal it was greater than 100 µM. Also, the TGI was 76.6 µM in the test with SK-MEL-28 melanoma; 85.2 µM in the test on SK-MEL-5 melanoma; greater than 100 µM with SNB-19 CNS; 60 µM in the test on SNB-75 CNS; 28.2 µM in the test on TK-10 renal; 40.7 µM in the test with U251 CNS. Moreover, the TGI in the test with UACC-257 melanoma amounted to 42.6 µM.

For `CO[C@@H](c1ccccc1)[C@H](O)[C@](O)(c1ccccc1)P(=O)(OC)OC`, the TGI with A498 renal, with ACHN renal, in the test with HCT-116 colon, with HCT-15 colon, with HOP-92 NSCLC and in the test with HT29 colon was greater than 100 µM in each case. The TGI with M14 melanoma, in the test with MDA-N, in the test on OVCAR-4 ovarian, with OVCAR-8 ovarian, in the test with PC-3 prostate and in the test on RXF 393 renal was greater than 100 µM throughout. Besides, the TGI with SK-MEL-28 melanoma, in the test on SK-MEL-5 melanoma, in the test on SNB-19 CNS, with SNB-75 CNS, in the test with TK-10 renal and in the test on U251 CNS was greater than 100 µM in each case. In the test on UACC-257 melanoma, this compound came in with a TGI greater than 100 µM.

Take `O=C(O)C/C(=C\c1ccccc1)C(=O)O`: the TGI in the test with A498 renal, in the test on ACHN renal, in the test on HCT-116 colon, in the test with HCT-15 colon, with HOP-62 NSCLC and in the test on HOP-92 NSCLC was greater than 100 µM throughout. The TGI with HT29 colon, in the test with M14 melanoma, with MDA-N, in the test on OVCAR-4 ovarian, in the test with OVCAR-8 ovarian and with PC-3 prostate was greater than 100 µM in each case. Besides, the TGI in the test on RXF 393 renal, in the test on SK-MEL-28 melanoma, with SK-MEL-5 melanoma, in the test with SNB-19 CNS, with SNB-75 CNS and in the test on TK-10 renal was greater than 100 µM each time. The TGI in the test with U251 CNS and with UACC-257 melanoma was greater than 100 µM in each case.

`COc1ccc(/C=C(\NC(=O)c2ccccc2)C(=O)NN(C)c2ccnc3cc(Cl)ccc23)cc1OC`: the TGI with A498 renal is greater than 100 µM; in the test on ACHN renal, 79 µM; in the test on HCT-116 colon, greater than 100 µM; in the test on HCT-15 colon, 55.4 µM; in the test on HOP-62 NSCLC, greater than 100 µM; in the test on HOP-92 NSCLC, 55.3 µM. For the same compound, the TGI was greater than 100 µM with HT29 colon; 47.9 µM in the test on M14 melanoma; 65.7 µM with MDA-N; 90.5 µM in the test with OVCAR-4 ovarian; 46.8 µM in the test on OVCAR-8 ovarian; 70.2 µM with PC-3 prostate. Besides, the TGI was 38.4 µM in the test with RXF 393 renal; 58.1 µM in the test on SK-MEL-28 melanoma; 88.3 µM with SK-MEL-5 melanoma; greater than 100 µM in the test on SNB-19 CNS; greater than 100 µM in the test with SNB-75 CNS; greater than 100 µM in the test on TK-10 renal. Moreover, the figures for the TGI with U251 CNS and in the test with UACC-257 melanoma were 35.4 µM and 79.1 µM, respectively.

As to `CN(C)c1ccc(/C=C/c2cc[n+](C)c3ccccc23)cc1`, the TGI in the test on A498 renal was greater than 58.8 µM; in the test with ACHN renal it was 36.5 µM; with HCT-116 colon, 8.62 µM; with HCT-15 colon, greater than 100 µM; in the test on HOP-62 NSCLC, 16.3 µM; with HOP-92 NSCLC it was 7.85 µM. Moreover, the TGI with HT29 colon stood at 12.2 µM; with M14 melanoma, 15.8 µM; with MDA-N, 9.35 µM; with OVCAR-4 ovarian, 21.4 µM; in the test with OVCAR-8 ovarian, 10.1 µM; in the test with PC-3 prostate it was 8.72 µM. In addition, the TGI in the test on RXF 393 renal came out at 32.8 µM; in the test on SK-MEL-28 melanoma, 21.9 µM; with SK-MEL-5 melanoma, 6.21 µM; in the test on SNB-19 CNS, 16.5 µM; in the test with SNB-75 CNS, 12.1 µM; in the test on TK-10 renal it was 25.1 µM. For the same compound, the values for the TGI in the test with U251 CNS and with UACC-257 melanoma were 15.9 µM and 8.57 µM, respectively.

In the case of `Nc1ccc(S(=O)(=O)c2ccc(NC(=O)c3cccnc3)cc2)cc1`, the TGI with A498 renal, in the test with ACHN renal, in the test with HCT-116 colon, in the test with HCT-15 colon, in the test on HOP-62 NSCLC and in the test with HOP-92 NSCLC was greater than 100 µM each time. Also, the TGI in the test on HT29 colon, in the test with M14 melanoma, with MDA-N, in the test with OVCAR-4 ovarian, with OVCAR-8 ovarian and in the test on PC-3 prostate was greater than 100 µM in each case. Also, the TGI in the test on RXF 393 renal, in the test with SK-MEL-28 melanoma, in the test on SK-MEL-5 melanoma, with SNB-19 CNS, in the test with SNB-75 CNS and with TK-10 renal was greater than 100 µM in each case. For the same compound, the TGI with U251 CNS and with UACC-257 melanoma was greater than 100 µM throughout.

Turning to `Clc1ncnc2c1nc(C#Cc1ccccc1)n2Cc1ccccc1`, the TGI in the test on A498 renal was greater than 100 µM; in the test on ACHN renal it was greater than 100 µM; with HCT-116 colon, greater than 100 µM; in the test with HCT-15 colon, 36.6 µM; in the test on HOP-62 NSCLC it was greater than 100 µM; with HOP-92 NSCLC, 59.9 µM. Besides, the TGI is 72.2 µM in the test with HT29 colon; 53 µM in the test with M14 melanoma; 53.8 µM in the test with MDA-N; 35.8 µM in the test with OVCAR-4 ovarian; 53.9 µM in the test with OVCAR-8 ovarian; greater than 100 µM with PC-3 prostate. Besides, the TGI in the test on RXF 393 renal is 48 µM; in the test with SK-MEL-28 melanoma, 44.2 µM; in the test with SK-MEL-5 melanoma it was greater than 100 µM; in the test with SNB-19 CNS, greater than 100 µM; with SNB-75 CNS, 92.2 µM; in the test on TK-10 renal it was greater than 100 µM. The values for the TGI with U251 CNS and in the test with UACC-257 melanoma were 34.9 µM and 74.7 µM, respectively.
